ChEMBL document CHEMBL4828771, “Discovery and Development of a Potent, Selective, and Orally Bioavailable CHK1 Inhibitor Candidate: 5-((4-((3-Amino-3-methylbutyl)amino)-5-(trifluoromethyl)pyrimidin-2-yl)amino)picolinonitrile” (J Med Chem, 2021)
Each block holds one compound with its values, some of them ahead of it.

Legend:
Z-138 = test: Antiproliferation activity against human Z138 cells assessed as reduction in cell viability incubated for 72 hrs by MTS assay; assay type: functional, cell-based; settings: Z-138, 72 h
[1] = molecular target: T1, Serine/threonine-protein kinase Chk1 (Homo sapiens, UniProt O14757); test: Inhibition of CHK1 (unknown origin) incubated for 1 hr in presence of ATP by HTRF assay
T1 sequence (O14757 whole entry): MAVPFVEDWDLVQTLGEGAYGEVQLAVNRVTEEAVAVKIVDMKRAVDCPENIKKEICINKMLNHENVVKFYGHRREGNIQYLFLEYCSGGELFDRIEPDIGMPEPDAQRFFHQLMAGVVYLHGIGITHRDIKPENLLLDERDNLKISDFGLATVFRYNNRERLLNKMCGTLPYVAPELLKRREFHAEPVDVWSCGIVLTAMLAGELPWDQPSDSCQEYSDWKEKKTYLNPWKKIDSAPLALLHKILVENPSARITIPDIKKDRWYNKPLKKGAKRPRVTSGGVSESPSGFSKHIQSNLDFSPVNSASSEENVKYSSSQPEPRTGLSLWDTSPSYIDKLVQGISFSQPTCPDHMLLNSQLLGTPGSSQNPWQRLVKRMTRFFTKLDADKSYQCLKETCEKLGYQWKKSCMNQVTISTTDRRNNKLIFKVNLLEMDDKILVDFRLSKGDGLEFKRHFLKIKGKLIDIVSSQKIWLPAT

hERG (KCNH2) = hERG (KCNH2) (Homo sapiens, UniProt Q12809); test: Inhibition of human ERG expressed in HEK293 cells at 10 uM by patch-clamp technique relative to control; assay type: cell-based; settings: HEK293 cells that express hERG
Sequence of hERG (KCNH2) (Q12809 whole entry): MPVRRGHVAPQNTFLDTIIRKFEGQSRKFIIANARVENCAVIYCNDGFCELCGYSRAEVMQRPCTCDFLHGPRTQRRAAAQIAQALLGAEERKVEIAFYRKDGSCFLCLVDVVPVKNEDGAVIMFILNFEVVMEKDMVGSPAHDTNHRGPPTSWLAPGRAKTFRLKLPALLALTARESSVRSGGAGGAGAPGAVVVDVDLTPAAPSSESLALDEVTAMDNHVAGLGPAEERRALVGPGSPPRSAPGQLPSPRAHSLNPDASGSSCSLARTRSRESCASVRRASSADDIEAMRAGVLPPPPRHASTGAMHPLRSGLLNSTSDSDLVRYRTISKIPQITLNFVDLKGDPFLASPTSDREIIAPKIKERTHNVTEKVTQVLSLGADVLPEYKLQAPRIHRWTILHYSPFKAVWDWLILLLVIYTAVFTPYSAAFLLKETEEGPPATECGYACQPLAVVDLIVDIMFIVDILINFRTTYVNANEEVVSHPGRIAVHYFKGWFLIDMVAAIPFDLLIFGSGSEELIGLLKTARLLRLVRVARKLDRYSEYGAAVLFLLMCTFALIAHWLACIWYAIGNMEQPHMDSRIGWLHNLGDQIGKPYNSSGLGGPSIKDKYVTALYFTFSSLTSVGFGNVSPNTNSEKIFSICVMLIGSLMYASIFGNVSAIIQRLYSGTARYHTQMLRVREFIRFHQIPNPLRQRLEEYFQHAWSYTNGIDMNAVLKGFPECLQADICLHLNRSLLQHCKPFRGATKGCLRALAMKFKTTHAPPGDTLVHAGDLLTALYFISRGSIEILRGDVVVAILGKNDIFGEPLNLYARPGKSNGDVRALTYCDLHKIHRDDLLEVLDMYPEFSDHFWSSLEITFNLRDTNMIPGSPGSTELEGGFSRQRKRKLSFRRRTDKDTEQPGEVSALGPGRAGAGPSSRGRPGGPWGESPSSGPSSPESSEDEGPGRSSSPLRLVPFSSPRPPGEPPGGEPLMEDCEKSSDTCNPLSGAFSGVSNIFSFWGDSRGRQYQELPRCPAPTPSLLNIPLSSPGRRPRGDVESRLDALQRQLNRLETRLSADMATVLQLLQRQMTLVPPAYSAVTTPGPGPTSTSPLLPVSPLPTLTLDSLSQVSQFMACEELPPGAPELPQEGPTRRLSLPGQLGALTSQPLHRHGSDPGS

MV4-11 [2] = test: Antiproliferation activity against human MV4-11 cells assessed as reduction in cell viability incubated for 72 hrs by MTS assay; assay type: functional, cell-based; settings: MV4-11, 72 h
[3] = Tmax in ICR mouse at 20 mg/kg, po measured after 0.083 to 48 hrs by LC-MS/MS analysis; assay type: ADME, organism-based; settings: in vivo, time 0.083-48 hrs
[4] = MRT (0 to infinity) in ICR mouse at 20 mg/kg, po measured after 0.083 to 48 hrs by LC-MS/MS analysis; assay type: ADME, organism-based; settings: in vivo, time 0.083-48 hrs
[5] = Cmax in ICR mouse at 20 mg/kg, po measured after 0.083 to 48 hrs by LC-MS/MS analysis; assay type: ADME, organism-based; design: route oral, time upper 48 hrs, time lower 0.083 hrs, dose 20 mg/kg; settings: in vivo
[6] = AUC (0 to infinity) in ICR mouse at 20 mg/kg, po measured after 0.083 to 48 hrs by LC-MS/MS analysis; assay type: ADME, organism-based; design: route oral, time upper 48 hrs, time lower 0.083 hrs, dose 20 mg/kg; settings: in vivo
[7] = AUCt in ICR mouse at 20 mg/kg, po measured after 0.083 to 48 hrs by LC-MS/MS analysis; assay type: ADME, organism-based; design: route oral, dose 20 mg/kg, time 0.083-48 hrs; settings: in vivo
[8] = Half life in ICR mouse at 20 mg/kg, po measured after 0.083 to 48 hrs by LC-MS/MS analysis; assay type: ADME, organism-based; settings: in vivo, time 0.083-48 hrs
MV4-11 [9] = test: Antitumor activity against human MV4-11 cells xenografted in mouse assessed as inhibition of tumor growth by measuring T/C ratio at 30 mg/kg, po dosed 5 days/week for 3 weeks measured twice every week; assay type: functional

SMILES: CNCCNc1cc(Nc2ncc(C(F)(F)F)c(NC)n2)cnc1C#N
IC50 (Z-138): 270 nM | IC50 [1]: 27.9 nM | inhibition at 10 µM (hERG (KCNH2)): 46.4% | IC50 (MV4-11 [2]): 180 nM

SMILES: N#Cc1ccc(Nc2ncc(C(F)(F)F)c(NC3CCNCC3)n2)cn1
IC50 [1]: 120 nM

SMILES: CNC(C)CCNc1nc(Nc2ccc(C#N)nc2)ncc1C(F)(F)F (centres undefined)
IC50 (Z-138): 350 nM | IC50 [1]: 16.3 nM | inhibition at 10 µM (hERG (KCNH2)): 35.5% | IC50 (MV4-11 [2]): 150 nM

SMILES: N#Cc1ccc(Nc2ncc(C(F)(F)F)c(NCCCNC3CCCC3)n2)cn1
IC50 [1]: 5500 nM

SMILES: CS(=O)(=O)CCNCCCNc1nc(Nc2ccc(C#N)nc2)ncc1C(F)(F)F
Tmax [3]: 0.25 h | IC50 (Z-138): 630 nM | MRT inf [4]: 2.42 h | Cmax [5]: 1690 ng/mL | AUC(0-inf) [6]: 2710 ng·h/mL | AUC(0-t) [7]: 2520 ng·h/mL | IC50 [1]: 24.3 nM | half-life [8]: 2.38 h | inhibition at 10 µM (hERG (KCNH2)): 58.5% | IC50 (MV4-11 [2]): 250 nM

SMILES: CNc1nc(Nc2cnc(C#N)c(N[C@@H]3CCNC3)c2)ncc1C(F)(F)F
Tmax [3]: 0.33 h | IC50 (Z-138): 170 nM | MRT inf [4]: 1.17 h | Cmax [5]: 1330 ng/mL | AUC(0-inf) [6]: 1150 ng·h/mL | AUC(0-t) [7]: 1120 ng·h/mL | T/C (MV4-11 [9]): 65.78% | IC50 [1]: 3.3 nM | half-life [8]: 1.4 h | inhibition at 10 µM (hERG (KCNH2)): 17.9% | IC50 (MV4-11 [2]): 60 nM

SMILES: N#Cc1ccc(Nc2ncc(C(F)(F)F)c(NCC3CCCCN3)n2)cn1 (racemic)
IC50 [1]: 993 nM

SMILES: N#Cc1ccc(Nc2ncc(C(F)(F)F)c(N[C@@H]3CCCNC3)n2)cn1
IC50 [1]: 831 nM

SMILES: N#Cc1ccc(Nc2ncc(C(F)(F)F)c(NC3CN4CCC3CC4)n2)cn1 (centres undefined)
IC50 [1]: 307 nM

SMILES: CNc1nc(Nc2cnc(C#N)c(N[C@H]3CCCNC3)c2)ncc1C(F)(F)F
IC50 [1]: 502 nM

SMILES: N#Cc1ncc(Nc2ncc(C(F)(F)F)cn2)cc1O[C@@H]1CCCNC1
IC50 [1]: 1010 nM

SMILES: N#Cc1ccc(Nc2ncc(C(F)(F)F)c(NCCN)n2)cn1
IC50 [1]: 217 nM

SMILES: CNc1nc(Nc2cnc(C#N)c(NCCCN)c2)ncc1C(F)(F)F
IC50 [1]: 51.1 nM

SMILES: CC(N)CCNc1nc(Nc2ccc(C#N)nc2)ncc1C(F)(F)F (racemic)
IC50 (Z-138): 5700 nM | IC50 [1]: 26.9 nM | inhibition at 10 µM (hERG (KCNH2)): 31.6% | IC50 (MV4-11 [2]): 390 nM

SMILES: N#Cc1ccc(Nc2ncc(C(F)(F)F)c(NCC3CCNCC3)n2)cn1
IC50 [1]: 65.5 nM

SMILES: CNc1nc(Nc2cnc(C#N)c(O[C@H]3CCNC3)c2)ncc1C(F)(F)F
IC50 [1]: 45 nM

SMILES: N#Cc1ccc(Nc2ncc(C(F)(F)F)c(NCCCNC3CC3)n2)cn1
IC50 [1]: 270 nM

SMILES: N#Cc1ccc(Nc2ncc(C(F)(F)F)c(NCCCN)n2)cn1
Tmax [3]: 0.5 h | IC50 (Z-138): 460 nM | MRT inf [4]: 1.3 h | Cmax [5]: 2860 ng/mL | AUC(0-inf) [6]: 4100 ng·h/mL | AUC(0-t) [7]: 3300 ng·h/mL | T/C (MV4-11 [9]): 29.94% | IC50 [1]: 20.9 nM | half-life [8]: 0.76 h | inhibition at 10 µM (hERG (KCNH2)): 43.4% | IC50 (MV4-11 [2]): 140 nM

SMILES: COCCNCCCNc1nc(Nc2ccc(C#N)nc2)ncc1C(F)(F)F
IC50 [1]: 577 nM

SMILES: N#Cc1ccc(Nc2ncc(C(F)(F)F)c(NCCCNCC(O)CO)n2)cn1 (centres undefined)
IC50 [1]: 152 nM

More lines, main results first:

IC50 [1]: 119 nM
SMILES: CNc1nc(Nc2cnc(C#N)c(N[C@@H]3CCN(C)C3)c2)ncc1C(F)(F)F

IC50 [1]: 1610 nM
SMILES: N#Cc1ccc(Nc2ncc(C(F)(F)F)c(NCCCNCCN3CCOCC3)n2)cn1

IC50 [1]: 62.6 nM
SMILES: N#Cc1ccc(Nc2ncc(C(F)(F)F)c(NCC3CCCNC3)n2)cn1 (racemic)

IC50 [1]: 217 nM
SMILES: N#Cc1ccc(Nc2ncc(C(F)(F)F)c(NCCCNCCO)n2)cn1
inhibition at 10 µM (hERG (KCNH2)): 35.2%

Tmax [3]: 2 h | MRT inf [4]: 2.58 h | Cmax [5]: 93 ng/mL | AUC(0-inf) [6]: 130 ng·h/mL | AUC(0-t) [7]: 126 ng·h/mL | IC50 [1]: 6.8 nM | half-life [8]: 0.89 h
SMILES: CNc1nc(Nc2cnc(C#N)c(O[C@@H]3CCCNC3)c2)ncc1-c1cnn(C(F)(F)F)c1

IC50 [1]: 40.3 nM | IC50 (MV4-11 [2]): 200 nM
SMILES: N#Cc1ccc(Nc2ncc(C(F)(F)F)c(NC[C@@H]3CCNC3)n2)cn1
IC50 (Z-138): 1170 nM

IC50 [1]: 12.2 nM | IC50 (MV4-11 [2]): 50 nM
SMILES: CNc1nc(Nc2cnc(C#N)c(N[C@@H]3CCCNC3)c2)ncc1C(F)(F)F
IC50 (Z-138): 720 nM | inhibition at 10 µM (hERG (KCNH2)): 81.1%

IC50 [1]: 110 nM
SMILES: CNc1nc(Nc2cnc(C#N)c(NC[C@@H]3CCCNC3)c2)ncc1C(F)(F)F

IC50 [1]: 8.5 nM | IC50 (MV4-11 [2]): 10 nM
SMILES: CNc1nc(Nc2cnc(C#N)c(N[C@H]3CC[C@@H](N)CC3)c2)ncc1C(F)(F)F
IC50 (Z-138): 50 nM | inhibition at 10 µM (hERG (KCNH2)): 84.2%

IC50 [1]: 441 nM
SMILES: N#Cc1ccc(Nc2ncc(C(F)(F)F)c(NCCCNC=O)n2)cn1

IC50 [1]: 107 nM
SMILES: N#Cc1ccc(Nc2ncc(C(F)(F)F)c(NCCCNCCC(N)=O)n2)cn1
